From patent US9681668B2, “Control of plant diseases and enhancing plant growth using a combination of a Trichoderma virens species and a rhizosphere competent Trichoderma harzianum species” (priority 2008, dated 2017)

Experiments:
Type in all cases: in vivo
Phytophthora cinnamomi [1] = assay: Example 1: soil treatment of boxwoods inoculated with P. cinnamomi; conditions: boxwood; for Marketability: 1(dead)-5(excellent) Scale: G41 8 oz, mefenoxam 1 oz/100 gal, mean of 10
Description: (§1) Except for the non-inoculated controls, each plant was treated with P. cinnamomi inoculum to induce disease. Boxwood plants were obtained from a local nursery and placed into a 6 inch diameter pot containing pine bark: peat (3:1 volume:volume) potting media. The medium was amended with 14 lb of 17-7-12 Osmocote fertilizer per cubic yard of mix.
(§2) Inoculum of P. cinnamomi was grown on sterilized rice grains for 14 days at 24-26° C. prior to inoculation. To treat the plants with the pathogen inoculum, four holes were punched equidistant around the root ball, and four colonized rice grains were inserted in each hole. Each of the test materials was applied at the specified rate to the soil surface, using a 2.5 pint hand held sprayer. The chemical standard, mefenoxam (Subdue®), was applied to the soil surface 24 hours after the plant roots were inoculated with P. cinnamomi inoculum. T22 and G41 were applied to the soil surface 72 hours prior to root inoculation with P. cinnamomi.
(§3) A marketability rating was determined for each plant at one day after inoculation (DAI) with P. cinnamomi, 22 days DAI, and 54 days DAI. Using the following scale, each plant was rated by three researchers and the mean value was determined for each plant: • 1: Dead plants • 2: Poor, unsalable (severe chlorosis and poor top growth) • 3: Moderate, salable (slight chlorosis and/or stunting; plant growth between 2 and 4) • 4: Salable (few individual leaves with chlorosis, green foliage; plant growth between 3 and 5) • 5: Excellent health, salable (no chlorosis; optimum top growth)
(§4) At 1, 22, and 54 DAI, plant height was measured from the crown to the highest point of the plant. Dry root weight and fresh shoot weight were determined at 22 and 54 DAI.
(§5) At 22 DAI, a subset of plants from each treatment were removed and examined. Plants were removed from the pots, and excess soil was carefully brushed from the roots. Above ground portions (shoots) were cut away from the below ground portions and dried in an oven. Dry root weights and fresh shoot weights were recorded. At 54 DAI, the experiment was terminated; the remaining plants were treated as above to determine dry root and shoot weights. Data were subjected to analysis of variance and treatment means were separated by Student-Newman-Keuls test at P=0.05.

Phytophthora cinnamomi [2] = assay: Example 2: spray treatment of boxwoods challenged with Phytophthora cinnamomi; conditions: boxwood, P. cinnamomi; for Dry Root Weight / Fresh Shoot Weight: mean of 5; for Marketability: 1(dead)-5(excellent) Scale: G41 4 oz, T22 4 oz, mefenoxam 1 oz/100 gal; for Marketability: 1(dead)-5(excellent) Scale / Height: mean of 10
Description: as §1, §2, §3, §4, §5
Except for the non-inoculated controls, each plant was treated with P. cinnamomi inoculum to induce disease. The methodology for this test was identical to that described in Example 1.

Phytophthora nicotianae = assay: Example 3: spray treatment of azaleas challenged with Phytophthora nicotianae; conditions: azalea, P. nicotianae; for Dry Root Weight / Fresh Shoot Weight: mean of 5; for Marketability: 1(dead)-5(excellent) Scale: G41 4 oz, T22 4 oz, mefenoxam 1 oz/100 gal; for Marketability: 1(dead)-5(excellent) Scale / Height: mean of 10
Description: as §2, §3, §4, §5
Except for the non-inoculated controls, each plant was treated with P. nicotianae inoculum to induce disease. The methodology for this test was identical to that described in Example 1.

[3] = test system: Fusarium oxysporum f. sp. lycopersici; assay: Example 4: soil drench of tomato seedlings challenged with Fusarium oxysporum; conditions: 28 DAI, biologicals 4 oz, mefenoxam 1 oz/100 gal, mean of 28 plants
Description: (§6) Tomato, Lycopersicon esculentum, var esculentum ‘Beefsteak’, seedlings were subjected to the soil drench treatments set forth in Table 13. Except for the non-inoculated controls, each plant was treated with inoculum of the pathogen F. oxysporum f. sp. lycopersici to induce disease.
(§7) Tomatoes were started in 128-cell flats from seeds in a general purpose, peat-based growing medium. Plants were watered with a 100 ppm solution of 20-20-20 water-soluble plant food (Jack's Classic). At 4-5 days after planting, the seedlings were drenched with the biological materials mixed in water. Seedlings not receiving treatments at this time were treated only with the blank formulation (without Trichoderma).
(§8) Inoculum of F. oxysporum was grown on sterilized rice grains for 7 days at 24-26° C. The rice was uniformly blended into growing medium at a rate of 5% (weight: weight). Seven day old tomato seedlings were transplanted into 4 inch pots that contained the pathogen inoculum on rice. A set of untreated control seedlings were transplanted into pots containing the growing medium plus uninoculated rice. […]
(§9) Plants were maintained in a growing room at 20-24° C. under a 12 hour light: dark cycle. […] The material was dried in an oven at 60° C. until completely dry (approximately 24 hours) and the weights recorded. […] Significant differences between treatment means were determined using Tukey's HSD test at P=0.05.

Pythium irregulare [4] = assay: Example 5: soil drench of tomato seedlings challenged with Pythium irregulare; conditions: 21 DAI, biologicals 4 oz, mefenoxam 1 oz/100 gal, mean of 28 plants
Description: (§10) Tomato, Lycopersicon esculentum, var esculentum ‘Beefsteak’, seedlings were subjected to the soil drench treatments set forth in Table 13. Except for the non-inoculated controls, each plant was treated with inoculum of the pathogen Pythium irregulare to induce disease.
(§11) Tomato seedlings were grown and treated as described above in Example 2. Sterile rice was inoculated with a suspension of P. irregulare at the rate of 1 colonized PDA Petri plate/1 liter of sterile water. Rice was incubated for 24 hours at 24-26° C. Infested rice was uniformly blended into the growing medium at a rate of 5% (weight: weight).
(§12) Tomato seedlings were transplanted into 4 inch pots that contained the pathogen inoculum on rice. A set of untreated control seedlings were transplanted into pots containing the growing medium plus rice, but no pathogen. A set of seedlings was drenched with the label rate of mefenoxam to serve as the chemical standard and a set of treated control seedlings was transplanted into medium containing the pathogen.
(§13) Plants were maintained in a growing room at 20-24° C. under a 12 hour light: dark cycle. Plants were watered with a nutrient solution as described above. […] The material was dried in an oven until completely dry (approximately 24 hours) and the weights recorded.

Pythium aphanidermatum = assay: Example 6: cucumber seed coating against Pythium aphanidermatum damping-off; conditions: P. aphanidermatum inoculum, greenhouse
Description: Cucumber, Cucumis sativus, var Marketmore 76 seeds were coated with T harzianum and/or T. virens, or mefenoxam as described by Pill et al. (Pill et. al., Scientia Horticulturae 121:54-62 (2009), which is hereby incorporated by reference in its entirety). Seeds were planted into flats with or without P. aphanidermatum inoculum. The experiment was conducted in a greenhouse with natural lighting and temperature settings of 25/22° C. (day/night). The numbers of seedlings emerged were recorded daily until there was no increase for two consecutive days. Diseased plants were recorded as either pre- (no seedling emergence) or post-emergent (shoot lodging).

Rhizoctonia solani = assay: Example 7: soil drench of tomato seedlings challenged with Rhizoctonia solani; conditions: R. solani, 23 DAI, biologicals 4 oz, mefenoxam 1 oz/100 gal, mean of 28 plants
Description: as §10, with “13, except that there were no untreated control plants.” for “13.”, “R. solani” for “Pythium irregulare”
Tomato seedlings were grown and treated as described above in Example 2. Sterile rice was inoculated with agar plugs from PDA Petri plates containing growing colonies of R. solani at a rate of one colonized PDA plate/500 g rice. Rice was incubated for 10 days at 24-26° C. Infested rice was uniformly blended into the growing medium at a rate of 5% (weight: weight).
Tomato seedlings were transplanted into 4 inch pots that contained the pathogen inoculum on rice. The untreated check plants became contaminated with an unknown disease and were not included in the analysis. A set of seedlings was drenched with the label rate of mefenoxam to serve as the chemical standard and a set of treated control seedlings was transplanted into medium containing the pathogen.
as §13, with “oven at 60° C.” for “oven”, “recorded. Data were analyzed as described in Example 2, above.” for “recorded.”

Pythium irregulare [5] = assay: Example 8 Experiment 1: soil drench of cucumber seedlings challenged with Pythium irregulare (T22 and G21); conditions: 28 DAI, biologicals 4 oz, mefenoxam 1 oz/100 gal, mean of 14 plants
Description: Except for the non-inoculated controls, each plant was treated with inoculum of the pathogen Pythium irregulare to induce disease.
as §11, with “Seedlings were” for “Tomato seedlings were”, “described” for “described above”, “Example 4.” for “Example 2.”, “of one” for “of 1”
as §12, with “Cucumber” for “Tomato”
Plants were maintained in a growing room at 20-24° C. under a 12 hour light: dark cycle. At 28 DAI, the experiment was terminated, and the plants were each separated into two parts: root (below ground) and shoot (above ground). The material was dried in an oven at 60° C. until completely dry (approximately 24 hours) and the weights recorded. Data were analyzed as described in Example 4.

[6] = test system: Fusarium oxysporum f. sp. lycopersici; assay: Example 8 Experiment 2: soil drench of tomato seedlings challenged with Fusarium oxysporum (T12 and G41); conditions: 28 DAI, biologicals 4 oz, mefenoxam 1 oz/100 gal, mean of 14 plants
Description: as §6, §7, §8
as §9, with “P=0.05. […]” for “P=0.05.”

COCC(=O)N(c1c(C)cccc1C)[C@H](C)C(=O)OC [Mefenoxam, mefenoxam]
Marketability: 1(dead)-5(excellent) Scale (Phytophthora cinnamomi [1]; 5/26, T22 4 oz): 5 a
Height (Phytophthora cinnamomi [1]; 5/26, mean of 10): 13.8 a cm
Marketability: 1(dead)-5(excellent) Scale (Phytophthora cinnamomi [1]; 6/21, T22 4 oz): 4.4 a
Dry Root Weight (Phytophthora cinnamomi [1]; 6/21, mean of 5): 16.7 a g
Fresh Shoot Weight (Phytophthora cinnamomi [1]; 6/21, mean of 5): 86.2 a g
Height (Phytophthora cinnamomi [1]; 6/21, mean of 10): 39.7 a cm
Marketability: 1(dead)-5(excellent) Scale (Phytophthora cinnamomi [1]; 7/10, T22 4 oz): 4.7 a
Dry Root Weight (Phytophthora cinnamomi [1]; 7/10, mean of 5): 30.1 a g
Fresh Shoot Weight (Phytophthora cinnamomi [1]; 7/10, mean of 5): 108.3 a g
Height (Phytophthora cinnamomi [1]; 7/10, mean of 10): 39.8 a cm
Dry Root Weight (Phytophthora cinnamomi [2]; 1/13): 96.0 ab g
Fresh Shoot Weight (Phytophthora cinnamomi [2]; 1/13): 81.6 a g
Dry Root Weight (Phytophthora cinnamomi [2]; 12/12): 76.4 a g
Fresh Shoot Weight (Phytophthora cinnamomi [2]; 12/12): 64.8 a g
Marketability: 1(dead)-5(excellent) Scale (Phytophthora cinnamomi [2]; Dec. 12, 2004): 4.6 a
Height (Phytophthora cinnamomi [2]; Dec. 12, 2004): 34.6 ab cm
Marketability: 1(dead)-5(excellent) Scale (Phytophthora cinnamomi [2]; Jan. 13, 2005): 4.7 ab
Height (Phytophthora cinnamomi [2]; Jan. 13, 2005): 36.7 ab cm
Marketability: 1(dead)-5(excellent) Scale (Phytophthora cinnamomi [2]; Nov. 21, 2004): 5.0 a
Height (Phytophthora cinnamomi [2]; Nov. 21, 2004): 13.3 ab cm
Dry Root Weight (Phytophthora nicotianae; 6/21): 44.2 a g
Fresh Shoot Weight (Phytophthora nicotianae; 6/21): 49.0 ab g
Dry Root Weight (Phytophthora nicotianae; 7/10): 55.5 ab g
Fresh Shoot Weight (Phytophthora nicotianae; 7/10): 70.3 ab g
Marketability: 1(dead)-5(excellent) Scale (Phytophthora nicotianae; Dec. 17, 2004): 4.4 ab
Height (Phytophthora nicotianae; Dec. 17, 2004): 27.5 ab cm
Marketability: 1(dead)-5(excellent) Scale (Phytophthora nicotianae; Jan. 6, 2005): 4.4 ab
Height (Phytophthora nicotianae; Jan. 6, 2005): 35.5 ab cm
Marketability: 1(dead)-5(excellent) Scale (Phytophthora nicotianae; Nov. 25, 2004): 5 a
Height (Phytophthora nicotianae; Nov. 25, 2004): 13.7 a cm
Dry Root Weight [3]: 0.12 bc g
Dry Shoot Weight [3]: 0.90 bc g
Dry Root Weight (Pythium irregulare [4]): 0.04 c g
Dry Shoot Weight (Pythium irregulare [4]): 0.28 g·days
Percent Damping-Off, Pre-emergence (Pythium aphanidermatum): 4.6 bc Percent
Percent Damping-Off, Total (Pythium aphanidermatum): 9.3 c Percent
Dry Root Weight (Rhizoctonia solani): 0.06 b g
Dry Shoot Weight (Rhizoctonia solani): 0.42 c g
Dry Root Weight (Pythium irregulare [5]): 0.10 abc g
Dry Shoot Weight (Pythium irregulare [5]): 0.66 ab g
Dry Root Weight [6]: 0.03 b g
Dry Shoot Weight [6]: 0.17 c g
